# Values joined by “and” are separate entries in the source; they are usually repeats but may differ in a detail not shown here. Equal values may be shown once.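 Test compounds were applied to cells in 96-well plates for 48 hours at 5 doses. GI50 marks 50% less growth. TGI is the concentration that stops growth completely.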
# What was measured:
# Assay in all cases: NCI tumour cell line growth inhibition, 48 h
# [1] = test system: COLO 205 colon
# [2] = test system: NCI-H460 lung
# [3] = test system: NCI-H522 lung
# [4] = test system: OVCAR-5 ovarian
# [5] = test system: RXF 393 renal
# [6] = test system: SNB-75 CNS
# [7] = test system: SR leukemia
# [8] = test system: SW-620 colon
# [9] = test system: TK-10 renal
# [10] = test system: EKVX NSCLC
Compound,TGI [1],TGI [2],TGI [3],TGI [4],TGI [5],TGI [6],TGI [7],TGI [8],TGI [9],GI50 [1],GI50 [2],GI50 [3],GI50 [4],GI50 [5],GI50 [6],GI50 [7],GI50 [8],GI50 [9],TGI [10],GI50 [10]
CN(C)CC1CCC/C1=N\O (configuration not stated),> 100 µM,> 100 µM,> 100 µM,> 100 µM,> 100 µM,> 100 µM,> 100 µM,> 100 µM,> 100 µM,,,,,,,,,,,
COC(=O)c1nc(Cl)nc(Cl)c1Cl,36 µM,> 100 µM,36.5 µM,52.3 µM,28.2 µM,> 100 µM,58.7 µM,38.5 µM,47.8 µM,,,,,,,,,,,
COc1ccc(-c2ccc(-c3ccc(C(=N)N)cn3)o2)cc1,3.68 µM,14 µM,20.7 µM,23.7 µM,20 µM,22.5 µM,10.3 µM,16 µM,22.7 µM,1.82 µM,3.69 µM,6.8 µM,10.9 µM,7.01 µM,10.5 µM,3.11 µM,4.05 µM,10.7 µM,,
COC1C2C=CC(C2)[C@H]1[N+](=O)[O-] (some centres not stated),> 100 µM,> 100 µM,> 100 µM,> 100 µM,> 100 µM,> 100 µM,> 100 µM,> 100 µM,> 100 µM,,,,,,,,,,> 100 µM,
Cc1cc(C)c(C(=O)c2no[n+]([O-])c2C(=O)c2c(C)cc(C)c(Br)c2C)c(C)c1Br,31.4 µM,45.8 µM,23.4 µM,33 µM,19.9 µM,25.8 µM,8.42 µM,26.9 µM,26.5 µM,,,,,,,,,,24.4 µM,
COc1ccc2[nH]c(O)c(C(=Nc3ccc(N(C)C(=O)CN4CCN(C)CC4)cc3)c3ccccc3)c2c1,2.9 µM,11.1 µM,8.96 µM,16.4 µM,2.36 µM,2.64 µM,1.45 µM,11.4 µM,7.08 µM,0.575 µM,2.83 µM,2.52 µM,2.68 µM,1.04 µM,1.07 µM,0.23 µM,1.78 µM,1.99 µM,16.2 µM,3.94 µM
CCOc1cccc(/C=N/NC(=O)C(=O)Nc2cccc(C(F)(F)F)c2)c1O,> 100 µM,60.3 µM,> 100 µM,> 100 µM,55.1 µM,57.8 µM,15.4 µM,> 100 µM,> 100 µM,2.43 µM,0.808 µM,2.29 µM,5.67 µM,4.07 µM,5.38 µM,0.705 µM,3.09 µM,4.3 µM,,
CCC[n+]1cc2cc(OC)c(OC)cc2c2c1-c1cc3c(cc1C2)OCO3,8.52 µM,11.3 µM,1.71 µM,67.8 µM,35.7 µM,4.52 µM,26.2 µM,23.7 µM,58.9 µM,1.61 µM,2.98 µM,0.0792 µM,32.9 µM,17 µM,0.843 µM,2.18 µM,2.83 µM,22.6 µM,48 µM,11.9 µM
C=C1C(=O)O[C@H]2[C@H]1CC/C(COC(=O)c1cc3cc(Cl)ccc3[nH]1)=C\CC[C@@]1(C)O[C@@H]21,3.7 µM,3.53 µM,3.92 µM,3.28 µM,2.72 µM,2.07 µM,3.61 µM,3.37 µM,3.12 µM,1.72 µM,1.72 µM,1.59 µM,1.53 µM,1.38 µM,0.576 µM,0.776 µM,1.4 µM,1.75 µM,2.91 µM,1.4 µM
C=CC(=O)Nc1cc2c(Nc3ccc(F)c(Cl)c3)ncnc2cc1OCCCN1CCOCC1,7.32 µM and > 10 µM,15.4 µM and > 10 µM,2.37 µM and 1.98 µM,16.3 µM and > 10 µM,2.82 µM and 6.23 µM,4.54 µM and > 7.95 µM,> 21 µM and 6.51 µM,3.59 µM and > 6.13 µM,9.6 µM and 6.78 µM,2.42 µM and 4.59 µM,3.65 µM and 5.27 µM,0.546 µM and 0.119 µM,0.879 µM and 5.82 µM,1.32 µM and 1.88 µM,0.47 µM and 1.06 µM,1.72 µM and 2.3 µM,1.81 µM and 2.62 µM,< 0.01 µM and 0.00217 µM,12.4 µM and > 10 µM,0.0262 µM and 0.0367 µM
COc1ccc(C2=NN(C=O)C(c3cccc(Nc4ccnc5cc(Cl)ccc45)c3)C2)cc1 (configuration not stated),9.88 µM,15.7 µM,12.7 µM,> 100 µM,7.61 µM,38 µM,5.23 µM,13.2 µM,20.2 µM,2.4 µM,2.73 µM,1.33 µM,11.3 µM,1.66 µM,2.56 µM,0.583 µM,1.73 µM,4.24 µM,> 100 µM,2.8 µM
Fc1cc2[nH]ncc2c2c3c(c(-c4cn[nH]c4C(F)(F)F)nc12)C1CCC3C1 (configuration not stated),2.24 µM,5.5 µM,3.38 µM,3.72 µM,1.12 µM,2.93 µM,> 50 µM,5.13 µM,4.08 µM,0.874 µM,1.15 µM,0.906 µM,1.19 µM,0.345 µM,0.945 µM,0.645 µM,0.982 µM,0.744 µM,5.91 µM,1.39 µM
Nc1ccc(C(=O)CC(N)C(=O)O)cc1O (configuration not stated),> 100 µM,> 100 µM,> 100 µM,> 100 µM,> 100 µM,> 100 µM,> 100 µM,> 100 µM,> 100 µM,,,,,,,,,,> 100 µM,
O=C(O)C1CCCCC1C(=O)O.[NH-]C1CCC1.[NH2-].[Pt+2] (configuration not stated),24.6 µM,> 100 µM,> 100 µM,34 µM,> 100 µM,> 100 µM,> 100 µM,44.5 µM,34.4 µM,10.3 µM,22.7 µM,7.21 µM,18.3 µM,52.8 µM,84.6 µM,3.72 µM,14.4 µM,18.1 µM,84.8 µM,26.5 µM
CCn1c(-c2nonc2N)nc2c(C#CC(C)(C)O)nc(OCCNC)cc21,10.3 µM,> 25 µM,9.72 µM,24.9 µM,11 µM,> 25 µM,> 21.8 µM,> 25 µM,20.4 µM,4.84 µM,7.83 µM,4.98 µM,7.99 µM,4.13 µM,7.78 µM,9.56 µM,6.68 µM,6.35 µM,> 25 µM,> 18.3 µM
O=C(N/N=C(/CCN1CCCC1)CC(c1ccccc1)c1c(O)c2ccccc2oc1=O)c1ccncc1 (configuration not stated),,> 100 µM,> 100 µM,> 100 µM,> 100 µM,> 100 µM,48.6 µM,> 100 µM,> 100 µM,,,,,,,,,,> 100 µM,

Compound,TGI [1],TGI [2],TGI [3],TGI [4],TGI [5],TGI [6],TGI [7],TGI [8],TGI [9],GI50 [1],GI50 [2],GI50 [3],GI50 [4],GI50 [5],GI50 [6],GI50 [7],GI50 [8],GI50 [9],TGI [10],GI50 [10]
Nc1ccccc1C#C/C=C\C#Cc1ccccc1[N+](=O)[O-],22 µM,83.1 µM,39.8 µM,33.6 µM,9.06 µM,58.3 µM,5.54 µM,88.8 µM,> 100 µM,4.38 µM,3.59 µM,7.25 µM,17.4 µM,2.07 µM,13.3 µM,0.289 µM,0.942 µM,28.2 µM,17.8 µM,2.51 µM
CC[C@]1(O)C(=O)OCc2c1cc1n(c2=O)Cc2cc3c(N)cccc3nc2-1,> 100 µM,> 100 µM,> 100 µM,> 100 µM,> 100 µM,99.1 µM,> 100 µM,> 100 µM,> 100 µM,,,,,,,,,,> 100 µM,
COc1cc2c(=O)n(CCN)c3c4cc5c(cc4ccc3c2cc1OC)OCO5,2.11 µM,1.25 µM,1.83 µM,2.59 µM,2.56 µM,3.35 µM,1.03 µM,2.07 µM,3.28 µM,0.352 µM,0.236 µM,0.167 µM,1.16 µM,1.02 µM,0.892 µM,0.0907 µM,0.23 µM,1.62 µM,3.51 µM,1.47 µM
CNCCn1c(=O)c2cc(OC)c(OC)cc2c2ccc3cc4c(cc3c21)OCO4,0.735 µM,0.558 µM,0.554 µM,2.6 µM,0.727 µM,5.53 µM,0.972 µM,3.09 µM,1.56 µM,0.0753 µM,0.0226 µM,0.0548 µM,0.195 µM,0.168 µM,0.127 µM,0.0173 µM,0.0572 µM,0.513 µM,5.01 µM,0.266 µM
Cc1[nH]nc(C(=O)n2nc(N)c3ccccc32)c1[N+](=O)[O-],> 100 µM,> 100 µM,> 100 µM,> 100 µM,> 100 µM,> 88.9 µM,> 100 µM,> 100 µM,> 100 µM,> 100 µM,> 100 µM,> 100 µM,> 100 µM,> 100 µM,26.9 µM,26.2 µM,> 100 µM,> 100 µM,> 100 µM,> 100 µM
CC(=O)NC(CCCCNC(=O)NCCCl)C(=O)NCc1ccccc1 (configuration not stated),> 100 µM,> 100 µM,> 100 µM,,> 100 µM,> 100 µM,> 100 µM,> 100 µM,> 100 µM,,,,,,,,,,> 100 µM,
CC(=O)OCC(OC(C)=O)C(OC(C)=O)C(OC(C)=O)C(=O)CNn1c(-c2ccccc2Cl)nc2ccccc2c1=O (configuration not stated),> 100 µM,> 100 µM,> 100 µM,> 100 µM,> 100 µM,> 100 µM,> 100 µM,> 100 µM,,,,,,,,,,,> 100 µM,
Cc1ccc(-c2csc(NC(=O)CN3CCN(c4cc5c(cc4F)c(=O)c(C(=O)O)cn5C4CC4)CC3)n2)cc1,3.75 µM,17.1 µM,3.09 µM,39.8 µM,17.8 µM,11.2 µM,6.87 µM,> 100 µM,,1.66 µM,0.368 µM,0.322 µM,3.48 µM,0.633 µM,0.448 µM,0.645 µM,0.95 µM,,23.9 µM,1.53 µM
Cc1nc2sccn2c1-c1csc(Nc2cccc(Cl)c2C)n1,43.7 µM,20.3 µM,26.5 µM,> 100 µM,37.6 µM,28.3 µM,53.1 µM,24.3 µM,,6.75 µM,3.58 µM,3.94 µM,24 µM,4.19 µM,3.19 µM,3.46 µM,3.91 µM,,,
NC(=S)NNc1c([N+](=O)[O-])cnn(-c2ccccc2)c1=O,26.7 µM,34 µM,33.6 µM,32.4 µM,33.9 µM,34.1 µM,> 100 µM,26.4 µM,46.6 µM,,,,,,,,,,,
CN1CC[C@]2(C)c3ccc(O)cc3CC3CCCC1C32C (some centres not stated),> 100 µM,> 100 µM,> 100 µM,> 100 µM,> 100 µM,> 100 µM,> 100 µM,,> 100 µM,,,,,,,,,,> 100 µM,
CCOc1cc(/C=N\Nc2nnc(C)n2N)c(C)cc1N(CCCl)CCCl,1.89 µM,31.5 µM,5.8 µM,> 100 µM,17.7 µM,6.5 µM,23.5 µM,> 57.3 µM,51.4 µM,0.375 µM,0.843 µM,0.461 µM,3.05 µM,1.2 µM,0.692 µM,0.558 µM,0.663 µM,1.97 µM,,
Cc1cccc(-n2c(=S)[nH]c3c(sc(=O)n3-c3ccccc3C)c2=O)c1,> 100 µM,> 100 µM,> 100 µM,> 100 µM,> 100 µM,> 100 µM,> 100 µM,> 100 µM,,,,,,,,,,,> 100 µM,
NCCCCNc1ccc2c(=O)[nH][nH]c(=O)c2c1,> 100 µM,,> 100 µM,> 100 µM,> 100 µM,> 100 µM,> 100 µM,> 100 µM,> 100 µM,,,,,,,,,,> 100 µM,
COc1cc(C(=O)Nc2cc3c(cc2Oc2cc(C)cc(C)c2)C(=O)N(C)[C@@H](CC(=O)N(C)O)C(=O)N3)c(Br)c(OC)c1OC,,0.00425 µM,< 0.00333 µM,0.00751 µM,0.00609 µM,< 0.00333 µM,0.00904 µM,0.0149 µM,0.0264 µM,,< 0.00333 µM,< 0.00333 µM,< 0.00333 µM,< 0.00333 µM,< 0.00333 µM,< 0.00333 µM,< 0.00333 µM,0.00526 µM,0.0201 µM,< 0.00333 µM

# Source: PubChem BioAssay (NCI)
